Laboratory results published in patent publication US20200046647A1, “EXOSOME-BASED NANOPARTICLE COMPOSITE AND METHOD FOR PREPARING THE SAME” (Korea University Research and Business Foundation, Sejong …, priority 2017, published 2020).
Structures can show the parent of a compound that is named as a salt.

Assay: Drug release pattern analysis (dialysis bag, phosphate-buffered saline)
Type: physicochemical
Details: within 24 h; body temperature (37° C.); PBS pH 7.4; FIG. 7
Method: The core/shell nanoparticle composite prepared in Example 1-1 was sampled, placed in a dialysis bag (molecular weight filtration limit: 100,000), and impregnated with 30 ml of phosphate-buffered saline (PBS, pH 7.4). The amount of the sampled nanoparticle composite was determined such that 10 mg of the doxorubicin-HCl was present in the sample. The phosphate-buffered saline was stirred at 100 rpm while maintaining the temperature at 37.5° C. After the lapse of a predetermined time, 5 ml of the phosphate-buffered saline was sampled. The amount of the drug released was measured by […]. After sampling, the remaining phosphate-buffered saline was completely removed and replaced with a fresh one. The amount of the doxorubicin-HCl released was measured using a UV-Vis spectrometer (G1103A, Agilent, USA).
For comparison, each of doxorubicin-HCl (10 mg) and the liposome-based core/shell nanoparticle composite prepared in Comparative Example 1 (containing 10 mg of doxorubicin-HCl) was added to 10 mL of distilled water. The release behavior of the drug in the aqueous solution was measured by the same procedure as described above.

- drug released into phosphate-buffered saline: > 95%
SMILES: COc1cccc2c1C(=O)c1c(O)c3c(c(O)c1C2=O)C[C@@](O)(C(=O)CO)C[C@@H]3O[C@H]1C[C@H](N)[C@H](O)[C@H](C)O1 [doxorubicin-HCl]
